Measured values: ChEMBL document CHEMBL3763023, “Amido/ureidosubstituted benzenesulfonamides-isatin conjugates as low nanomolar/subnanomolar inhibitors of the tumor-associated carbonic anhydrase isoform XII” (Eur J Med Chem, 2016)

Each molecule was assayed against Carbonic anhydrase 2 (Homo sapiens, UniProt P00918) (assay: Inhibition of recombinant human carbonic anhydrase 2 incubated for 15 mins prior to testing by stopped flow carbon dioxide hydrase assay).
For NS(=O)(=O)c1ccc(NC(=O)Nc2ccc(/N=C3\C(=O)Nc4ccc(Br)cc43)cc2)cc1, the Ki was > 10000 nM.

The molecules below were run against Carbonic anhydrase 9 (Homo sapiens, UniProt Q16790) (assay: Inhibition of recombinant human carbonic anhydrase 9 incubated for 15 mins prior to testing by stopped flow carbon dioxide hydrase assay).
Work on NS(=O)(=O)c1ccc(NC(=O)c2ccc(/N=C3\C(=O)Nc4ccc(Cl)cc43)cc2)cc1 yielded a Ki of 194 nM.
With NS(=O)(=O)c1ccc(/N=C2\C(=O)Nc3ccc([N+](=O)[O-])cc32)cc1 the Ki was 5 nM.
With NS(=O)(=O)c1ccc(NC(=O)Nc2ccc(/N=C3\C(=O)Nc4ccc(F)cc43)cc2)cc1 the Ki was 235 nM.
Nc1ccc(C(=O)Nc2ccc(S(N)(=O)=O)cc2)cc1 showed a Ki of 159 nM.
NS(=O)(=O)c1ccc(NC(=O)Nc2ccc(/N=C3\C(=O)Nc4ccc([N+](=O)[O-])cc43)cc2)cc1 showed a Ki of 14.8 nM.
For NS(=O)(=O)c1ccc(NC(=O)Nc2ccc(/N=C3\C(=O)Nc4ccccc43)cc2)cc1, the Ki was 217 nM.
Work on NS(=O)(=O)c1ccc(NC(=O)c2ccc(/N=C3\C(=O)Nc4ccccc43)cc2)cc1 yielded a Ki of 240 nM.
For NS(=O)(=O)c1ccc(NC(=O)Nc2ccc(/N=C3\C(=O)Nc4ccc(Cl)cc43)cc2)cc1, the Ki was 239 nM.
NS(=O)(=O)c1ccc(NC(=O)Nc2ccc(/N=C3\C(=O)Nc4ccc(Br)cc43)cc2)cc1 was tested, and the Ki was 192 nM.
Cc1ccc2c(c1)/C(=N/c1ccc(NC(=O)Nc3ccc(S(N)(=O)=O)cc3)cc1)C(=O)N2 showed a Ki of 16.7 nM.
In the case of NS(=O)(=O)c1ccc(NC(=O)c2ccc(/N=C3\C(=O)Nc4ccc(Br)cc43)cc2)cc1, the Ki is reported as 208 nM.
